Assay results as given in publication PMC7924852, “The Emericellipsins A–E from an Alkalophilic Fungus Emericellopsis alkalina Show Potent Activity against Multidrug-Resistant Pathogenic Fungi” (Journal of Fungi, 2021).
In brackets after ≈: the same amount, converted by molar mass. Read-outs that look alike come from different tables or passages of the source. Starred links: 1 amine or outer side, 2 acyl side, 3 side chain; linkers in the order of their positions; H or OH if unused. Positions of bridges follow the written chain, without caps; N, C: chain ends. Non-standard residues stand in square brackets, D forms with d. Residues, ends and D or L forms follow the SMILES beside them. *: point of attachment. hTyr(3S-OH,4S-OH,3'-OSO3H) = N[C@H](C(=O)O)[C@H](O)[C@@H](O)c1ccc(O)c(OS(=O)(=O)O)c1; pTerphenylCO(4''-OnC5H11) = CCCCCOc1ccc(-c2ccc(-c3ccc(C(=O)*)cc3)cc2)cc1; Orn(4R-OH,5R-OH) = O=C([C@H](C[C@@H](O)[C@@H](O)N[*:3])N[*:1])[*:2]; hTyr(3S-OH,4S-OH) = N[C@H](C(=O)O)[C@H](O)[C@@H](O)c1ccc(O)cc1; Pro(3S-OH,4S-Me) = C[C@H]1CN[C@H](C(=O)O)[C@H]1O; X1 = CCCCCOc1ccc(-c2cc(-c3ccc(C(=O)*)cc3)no2)cc1; Gln(3R-OH) = NC(=O)C[C@@H](O)[C@H](N)C(=O)O; Hyp = O=C(O)[C@@H]1C[C@@H](O)CN1

Key:
C. krusei 1447 = assay: Sensititre YeastOne antifungal susceptibility test; assay type: cell-based; settings: Pichia kudriavzevii
C. parapsilosis 571 = assay: Sensititre YeastOne antifungal susceptibility test; assay type: cell-based; settings: Lodderomyces parapsilosis
Candida albicans 1402 = assay: Sensititre YeastOne antifungal susceptibility test; assay type: cell-based
A. terreus 497 [1] = assay: Sensititre YeastOne antifungal susceptibility test; assay type: cell-based; settings: Aspergillus terreus
C. tropicalis 156 = assay: Sensititre YeastOne antifungal susceptibility test; assay type: cell-based; settings: Candida tropicalis
C. glabrata 1402 = assay: Sensititre YeastOne antifungal susceptibility test; assay type: cell-based; settings: Nakaseomyces glabratus
[2] = test system: Cryptococcus neoformans 297; assay: Sensititre YeastOne antifungal susceptibility test; assay type: cell-based
Cr. laurentii 325m = assay: Sensititre YeastOne antifungal susceptibility test; assay type: cell-based; settings: Papiliotrema laurentii
Aspergillus niger 1133m = assay: Sensititre YeastOne antifungal susceptibility test; assay type: cell-based
A. fumigatus 390m = assay: Sensititre YeastOne antifungal susceptibility test; assay type: cell-based; settings: Aspergillus fumigatus
A. fumigatus 390 m [3] = assay: Broth two-fold microdilution MIC (CLSI); assay type: cell-based, Aspergillus fumigatus; settings: A. fumigatus 390 m clinical isolate; RPMI 1640 pH 7.0, 35 °C, 48 h
A. terreus 497 [4] = assay: Disc-diffusion antifungal assay; assay type: cell-based; settings: 40 µg/disc; A. terreus 497, pathogenic clinical isolate
[5] = test system: reference and clinical strains of Aspergillus; assay: Disc-diffusion antifungal assay, Aspergillus strains; assay type: cell-based; settings: disc-diffusion, reference and clinical strains of Aspergillus
A. fumigatus 390 m [6] = assay: Disc-diffusion antifungal assay; assay type: cell-based, Aspergillus fumigatus; settings: 40 µg/disc, pathogenic clinical isolate
A. niger 1133 m [7] = assay: Broth two-fold microdilution MIC (CLSI); assay type: cell-based, Aspergillus niger; settings: A. niger 1133 m clinical isolate; RPMI 1640 pH 7.0, 35 °C, 48 h
[8] = test system: Aspergillus niger ATCC 16404; assay: Disc-diffusion antifungal assay; assay type: cell-based; settings: 40 µg/disc; A. niger ATCC 16404
A. fumigatus VKM F-37 [9] = assay: Disc-diffusion antifungal assay; assay type: cell-based, Aspergillus fumigatus; settings: 40 µg/disc
A. terreus 3 K [10] = assay: Broth two-fold microdilution MIC (CLSI); assay type: cell-based; settings: A. terreus 3 K; RPMI 1640 pH 7.0, 35 °C, 48 h
A. terreus 497 [11] = assay: Broth two-fold microdilution MIC (CLSI); assay type: cell-based; settings: A. terreus 497 clinical isolate; RPMI 1640 pH 7.0, 35 °C, 48 h
A. fumigatus VKM F-37 [12] = assay: Broth two-fold microdilution MIC (CLSI); assay type: cell-based, Aspergillus fumigatus; settings: A. fumigatus VKM F-37; RPMI 1640 pH 7.0, 35 °C, 48 h
A. terreus 3 K [13] = assay: Disc-diffusion antifungal assay; assay type: cell-based; settings: 40 µg/disc
A. niger ATCC 16404 = assay: Broth two-fold microdilution MIC (CLSI); assay type: cell-based, Aspergillus niger; settings: A. niger ATCC 16404; RPMI 1640 pH 7.0, 35 °C, 48 h, no visible growth
A. niger 1133 m [14] = assay: Disc-diffusion antifungal assay; assay type: cell-based, Aspergillus niger; settings: 40 µg/disc, pathogenic clinical isolate
[15] = Sensititre YeastOne, C. krusei 1447 clinical isolate, read-out: MIC
[16] = Sensititre YeastOne, C. parapsilosis 571 clinical isolate, read-out: MIC
[17] = Sensititre YeastOne, Candida albicans 1402 clinical isolate, read-out: MIC
[18] = Sensititre YeastOne, A. terreus 497 clinical isolate, read-out: MIC
[19] = Sensititre YeastOne, C. tropicalis 156 clinical isolate, read-out: MIC
[20] = Sensititre YeastOne, C. glabrata 1402 clinical isolate, read-out: MIC
[21] = Sensititre YeastOne, Cryptococcus neoformans 297 clinical isolate, read-out: MIC
[22] = Sensititre YeastOne, Cr. laurentii 325m clinical isolate, read-out: MIC
[23] = Sensititre YeastOne, Aspergillus niger 1133m clinical isolate, read-out: MIC
[24] = Sensititre YeastOne, A. fumigatus 390m clinical isolate, read-out: MIC

Row | Compound | MIC (C. krusei 1447; 1447) | MIC (C. parapsilosis 571; 571) | MIC (Candida albicans 1402; Candida albicans, 1402) | MIC (A. terreus 497 [1]; 497) | MIC (C. tropicalis 156; 156) | MIC (C. glabrata 1402; 1402) | MIC ([2]; Cryptococcus neoformans, 297) | MIC (Cr. laurentii 325m; 325M) | MIC (Aspergillus niger 1133m; Aspergillus niger, 1133M) | MIC (A. fumigatus 390m; 390M) | MIC (C. krusei 1447; [15]) | MIC (C. parapsilosis 571; [16]) | MIC (Candida albicans 1402; [17]) | MIC (A. terreus 497 [1]; [18]) | MIC (C. tropicalis 156; [19]) | MIC (C. glabrata 1402; [20]) | MIC [2, 21] | MIC (Cr. laurentii 325m; [22]) | MIC (Aspergillus niger 1133m; [23]) | MIC (A. fumigatus 390m; [24]) | other results
1 | CCCCCOc1ccc(-c2ccc(-c3ccc(C(=O)N[C@H]4C[C@@H](O)[C@@H](O)NC(=O)[C@@H]5[C@@H](O)[C@@H](C)CN5C(=O)[C@H]([C@@H](C)O)NC(=O)[C@H]([C@H](O)[C@@H](O)c5ccc(O)cc5)NC(=O)[C@@H]5C[C@@H](O)CN5C(=O)[C@H]([C@@H](C)O)NC4=O)cc3)cc2)cc1 [AND, anidulafungin] ({pTerphenylCO(4''-OnC5H11)}-[Orn(4R-OH,5R-OH)]T[Hyp][hTyr(3S-OH,4S-OH)]T[Pro(3S-OH,4S-Me)]; lactam 1-C) | 0.03 µg/mL (≈ 0.0263 µM) | 2 µg/mL (≈ 1.75 µM) | 0.06 µg/mL (≈ 0.0526 µM) | > 8 µg/mL | 0.12 µg/mL (≈ 0.105 µM) | 0.06 µg/mL (≈ 0.0526 µM) | > 8 µg/mL | > 8 µg/mL | > 8 µg/mL | > 8 µg/mL |  |  |  |  |  |  |  |  |  |  | 
2 | Nc1[nH]c(=O)ncc1F [Emi 5-FC, flucytosine] | 32 µg/mL (≈ 248 µM) | 0.5 µg/mL (≈ 3.87 µM) | 0.06 µg/mL (≈ 0.465 µM) | > 64 µg/mL | 0.06 µg/mL (≈ 0.465 µM) | 0.06 µg/mL (≈ 0.465 µM) | 8 µg/mL (≈ 62 µM) | 4 µg/mL (≈ 31 µM) | > 64 µg/mL | > 64 µg/mL |  |  |  |  |  |  |  |  |  |  | 
3 | CCC(C)n1ncn(-c2ccc(N3CCN(c4ccc(OCC5COC(Cn6cncn6)(c6ccc(Cl)cc6Cl)O5)cc4)CC3)cc2)c1=O (centres unmarked) [IZ, itraconazole] |  |  |  |  |  |  |  |  |  |  | 0.5 µg/mL (≈ 0.709 µM) | 0.5 µg/mL (≈ 0.709 µM) | 0.5 µg/mL (≈ 0.709 µM) | 0.25 µg/mL (≈ 0.354 µM) | > 16 µg/mL | > 16 µg/mL | 0.5 µg/mL (≈ 0.709 µM) | 0.12 µg/mL (≈ 0.17 µM) | 1 µg/mL (≈ 1.42 µM) | 0.25 µg/mL (≈ 0.354 µM) | 
4 | CC(=O)N1CCN(c2ccc(OCC3COC(Cn4ccnc4)(c4ccc(Cl)cc4Cl)O3)cc2)CC1 (centres unmarked) [KZ, ketoconazole] | 0.5 µg/mL (≈ 0.941 µM) | 0.5 µg/mL (≈ 0.941 µM) | 4 µg/mL (≈ 7.53 µM) | 8 µg/mL (≈ 15.1 µM) | 0.5 µg/mL (≈ 0.941 µM) | 4 µg/mL (≈ 7.53 µM) | 0.06 µg/mL (≈ 0.113 µM) | 0.12 µg/mL (≈ 0.226 µM) | 16 µg/mL (≈ 30.1 µM) | 8 µg/mL (≈ 15.1 µM) |  |  |  |  |  |  |  |  |  |  | 
5 | CCCCCOc1ccc(-c2cc(-c3ccc(C(=O)N[C@H]4C[C@@H](O)[C@@H](O)NC(=O)[C@@H]5[C@@H](O)[C@@H](C)CN5C(=O)[C@H]([C@H](O)CC(N)=O)NC(=O)[C@H]([C@H](O)[C@@H](O)c5ccc(O)c(OS(=O)(=O)O)c5)NC(=O)[C@@H]5C[C@@H](O)CN5C(=O)[C@H]([C@@H](C)O)NC4=O)cc3)no2)cc1 [MF, micafungin] (X1-[Orn(4R-OH,5R-OH)]T[Hyp][hTyr(3S-OH,4S-OH,3'-OSO3H)][Gln(3R-OH)][Pro(3S-OH,4S-Me)]; lactam 1-C) | 0.12 µg/mL (≈ 0.0945 µM) | 1 µg/mL (≈ 0.787 µM) | 0.03 µg/mL (≈ 0.0236 µM) | > 8 µg/mL | 0.03 µg/mL (≈ 0.0236 µM) | 0.015 µg/mL (≈ 0.0118 µM) | > 8 µg/mL | > 8 µg/mL | > 8 µg/mL | > 8 µg/mL |  |  |  |  |  |  |  |  |  |  | 
6 | CC[C@@H]([C@H](C)O)n1ncn(-c2ccc(N3CCN(c4ccc(OC[C@@H]5CO[C@@](Cn6cncn6)(c6ccc(F)cc6F)C5)cc4)CC3)cc2)c1=O [PZ, posaconazole] |  |  |  |  |  |  |  |  |  |  | 0.5 µg/mL (≈ 0.713 µM) | 1 µg/mL (≈ 1.43 µM) | 0.5 µg/mL (≈ 0.713 µM) | 0.12 µg/mL (≈ 0.171 µM) | > 8 µg/mL | > 8 µg/mL | 0.25 µg/mL (≈ 0.357 µM) | 1 µg/mL (≈ 1.43 µM) | 0.5 µg/mL (≈ 0.713 µM) | 0.25 µg/mL (≈ 0.357 µM) | 
7 | C[C@@H](c1ncncc1F)[C@](O)(Cn1cncn1)c1ccc(F)cc1F [VOR, voriconazole] |  |  |  |  |  |  |  |  |  |  | 1 µg/mL (≈ 2.86 µM) | 1 µg/mL (≈ 2.86 µM) | 1 µg/mL (≈ 2.86 µM) | 0.25 µg/mL (≈ 0.716 µM) | 4 µg/mL (≈ 11.5 µM) | 8 µg/mL (≈ 22.9 µM) | 0.25 µg/mL (≈ 0.716 µM) | 0.5 µg/mL (≈ 1.43 µM) | 8 µg/mL (≈ 22.9 µM) | 0.5 µg/mL (≈ 1.43 µM) | 
8 | Methyldecanoyl-MePro-AHMOD-Ser-Aib-Ile-Iva-βAla-Alaol-Glyol [EmiC, emericellipsin C, homologue of emericellipsin A, nonribosomal peptaibol] |  |  |  |  |  |  |  |  |  |  |  |  |  |  |  |  |  |  |  |  | Minimal Inhibitory Concentration (MIC) (A. fumigatus 390 m [3]): 16 µg/mL; Zone of Inhibition (A. terreus 497 [4]): 0 mm; antifungal activity against Aspergillus strains (in words) [5]: low activity only against A. niger strains; Zone of Inhibition (A. fumigatus 390 m [6]): 0 mm; Minimal Inhibitory Concentration (MIC) (A. niger 1133 m [7]): 32 µg/mL; Zone of Inhibition [8]: 9 ± 0.31 mm; Zone of Inhibition (A. fumigatus VKM F-37 [9]): 0 mm; Minimal Inhibitory Concentration (MIC) (A. terreus 3 K [10]): 8 µg/mL; Minimal Inhibitory Concentration (MIC) (A. terreus 497 [11]): 8 µg/mL; Minimal Inhibitory Concentration (MIC) (A. fumigatus VKM F-37 [12]): 16 µg/mL; Zone of Inhibition (A. terreus 3 K [13]): 0 mm; Minimal Inhibitory Concentration (MIC) (A. niger ATCC 16404): 32 µg/mL; Zone of Inhibition (A. niger 1133 m [14]): 0 mm
